“And” between values parts separate entries of the source, which are not always exact repeats. Equal entries are not always repeated.
What was measured:
Chagas disease = details: adults with chronic infection; cited from earlier work
[1] = test system: whole human blood cells (WHBC); test: In vitro cytokinesis-block micronucleus assay (CBMN) with whole human blood cells; details: positive control
Protocol: In vitro cytokinesis-block micronucleus assay (CBMN) with whole human blood cells (WHBC) - Heparinised WHBC samples were obtained by venipuncture from volunteers as described above. […] WHBC cultures exposed to mitomycin C (MMC) (1.0 µg/mL in water) (Bristol, USA) for 2 h or to N-deacetyl-N-methylcolchicine in water (Demecolcine: Sigma-Aldrich) 0.02 µg/mL for 28 h were used as positive control cultures. After the treatment, the WHBC cultures were centrifuged (900 rpm, 10 min) and washed with 5 mL PBS. […] CytB has cytokinesis-block activity leading to the formation of binucleate cells. […] The fixed cell suspension was dropped on a clean glass slide and the slide was air-dried on a heating plate (60 °C). Air-dried slides were stained with 60 µg/mL acridine orange in Sörensen buffer (0.03 M KH2PO4, 0.03 M Na2HPO4) for 3s, then they were embedded in distilled water and covered with a coverslip. MN showing bright green fluorescence were analysed using a fluorescence microscope at 400 X magnification. MN were scored in 2,000 binucleated cells (BNC) for culture and the number of the micronucleate cells (MNC) in 2,000 BNC was determined. Cytotoxicity was measured using the cytokinesis-block proliferation index (CBPI) and the replication index (RI) which were calculated from 500 cells. The CBPI indicates the average number of nuclei per cell, and may be used to calculate cell proliferation. The RI indicates the relative number of cell cycles per cell during the period of exposure to cytoB in treated cultures compared to control cultures and can be used to calculate the % cytostasis. CBPI was calculated according to the formula: CBPI = [(No. mononucleate cells) + (2 x No. binucleate cells) + (3 x No. multinucleate cells)] / N, where N indicates the total number of cells scored. RI (%) was calculated according to the formula:
RI %=((No. binucleate cells) + (2 x No. multinucleate cells)) ÷ (Total number of cells)T/((No. binucleate cells) + (2 x No. multinucleate cells)) ÷ (Total number of cells)C x 100
where T indicates treated cultures and C control cultures
Cytotoxicity was evidenced in the occurrence of reduction in CBPI or RI of cultures treated by test substances when compared to control cultures. The measurement of cytotoxicity was used to select the concentrations of the test substance to be analysed for the presence of MN. […] However, it was adopted in this work as the maximum concentration in CBMN one that induced a proliferation inhibition not exceeding about 50% established by ICH S2 (R1) for lymphocyte cultures.
The chi-square test for trend was performed to analyse if the increase of MNC was concentration-related.[30]

[2] = test system: whole human blood cells (WHBC); test: In vitro alkaline comet assay (CA) in whole human blood cells; assay type: cell-based
Protocol: Methyl methane-sulfonate (MMS) (160 μM) (Sigma-Aldrich) was used as a positive control. […] Slides were prepared, lysed (pH 10; 4-5 °C) and processed as described earlier,[32] using a time of alkali denaturation of 20 min and electrophoresis (0.86 V/cm and 300 mA) of 20 min at a pH > 13. […] The DNA damage was expressed as percentage of cells into four classes and as arbitrary units (AU) according to the formula: AU = (0 […] 3), where n = the number of cells analysed in each class. The total DNA damage score in AU (TAU) for 200 cells can range from 0 TAU (200 undamaged cells) to 600 TAU (all cells maximally damaged).

CC1CS(=O)(=O)CCN1/N=C/c1ccc([N+](=O)[O-])o1 (stereo not drawn) [Nfx, nifurtimox]
discontinuation of the treatment (Chagas disease): 14-75%
frequency of adverse effects (Chagas disease): 43.0-97.5%

CN[C@H]1CCc2cc(OC)c(OC)c(OC)c2-c2ccc(OC)c(=O)cc21 [Demecolcine, N-deacetyl-N-methylcolchicine, reference compound]
MNC in 2,000 BNC ([1]; 0.02 μg/mL, 28 h): 37 and 42 and 30

COS(C)(=O)=O [MMS, Methyl methane-sulfonate, reference compound]
cells with class 3 DNA damage ([2]; 160 µM): 87.7%
TAU mean value (total DNA damage score) ([2]; 160 μM, positive control, p < 0.001 vs control): 554.2 ± 9.9 TAU

CO[C@@]12[C@H](COC(N)=O)C3=C(C(=O)C(C)=C(N)C3=O)N1C[C@@H]1N[C@@H]12 [MMC, mitomycin C, reference compound]
MNC in 2,000 BNC ([1]; 1.0 μg/mL, 2 h): 38 and 56 and 40
